Experimental data: patent US20090270400A1 (priority 2004, published 2009)
Where two headings read alike, the source gives them in different places.

Test system: carrageenin-induced hyperalgesia on a rat's paw
Conditions: in vivo

SMILES | dose starting from which the pain threshold following a mechanical stimulus applied to the rats' paws is significantly reduced (ip) | dose starting from which the pain threshold following a mechanical stimulus applied to the rats' paws is significantly reduced (iv)
CN1CC[C@]23c4c5ccc(O)c4O[C@H]2[C@@H](O)C=C[C@H]3[C@H]1C5 [morphine] | ≥ 1 mg/kg | –
N[C@@H](CSSC[C@H](N)C(=O)N1CCn2cc(-c3ccccc3)nc2[C@@H]1CC1CCCCC1)C(=O)N1CCn2cc(-c3ccccc3)nc2[C@@H]1CC1CCCCC1 [compound 1, (1R)-1-[({(2R)-2-amino-3-[(8S)-8-(cyclohexylmethyl)-2-phenyl-5,6-dihydroimidazo [1,2-α]pyrazin-7(8H)-yl]-3-oxopropyl}dithio)methyl]-2-[(8S)-8-(cyclohexylmethyl)-2-phenyl-5,6-dihydroimidazo [1,2-α]pyrazin-7(8H)-yl]-2-oxoethylamine] | – | ≥ 1 mg/kg
